The results in this text go back to patent US10189773B2, “In-vivo gelling pharmaceutical pre-formulation” (MEDICUS BIOSCIENCES, LLC, priority 2010, dated 2019).

This data set can be described thus: Saturated solution of DDP or DCP in phosphate and borate buffers. It is filed as physicochemical. As to conditions: 25° C. From the text: Samples containing DDP or DCP were protected from light as a precaution.

Regarding `N.N.O=C([O-])C1(C(=O)[O-])CCC1.[Pt+2]` [DCP, cis-Diammine(1,1-cyclobutanedicarboxylato)platinum(II)], the “final concentration of saturated solution” value by setting is: (borate buffer (pH of 7.94)) 15.6 mg/mL; (phosphate buffer) 14.7 mg/mL.

Turning to `N.N.[Cl][Pt][Cl]` [DDP, cisdiamminedichloroplatinum(II)], the “final concentration of saturated solution” value was found to be 1.3 mg/mL (borate buffer (pH of 7.94)) and 1.3 mg/mL (phosphate buffer).
